Data published in patent US20020177621A1, “Antifungal fragrance composition” (priority 2000, published 2002).
Where “and” joins values, the source holds several entries; their conditions need not be identical. Equal values may be shown once. Entries after “also recorded” stand apart in the source; their conditions may differ.

Experiments:
Assay type in all cases: cell-based
[1] = test system: Aureobasidium pullulans IFO 6353 (Ap-1); assay: Fragrant vapor antifungal activity (impregnated paper disc on cover of inverted agar plate); details: 72 hours at 27° C.; for IZ: Diameter of growth inhibition zone: 20 μl fragrance (or 40 μl of 50% ethanol solution) on disc, >85 = growth inhibited over entire plate; for Growth: Growth status outside the inhibition zone / SI: Diameter of spore formation inhibition zone: 20 μl fragrance on disc; for Growth: Growth status outside the inhibition zone: compared with control
Method: (§1) Physiological saline containing 0.05% Tween-80 was added to a slant on which the test organism grew well, and a spore suspension was produced at 1×10^6 CFU (Colony Forming Units)/ml in accordance with ordinary methods. Potato dextrose agar (PDA: Nissui Pharmaceutical) was used for the medium. To begin with, 10 ml of sterile PDA was pipetted into a Petri dish and after it solidified, another 6 ml of PDA containing 1% of the above described spore suspension was overlaid and solidified to prepare the test agar plate. For the fragrance sample, if the sample is in the form of liquid at ordinary temperatures, 20 μl of liquid was directly impregnated into a paper disc (Advantech, diameter: 8 mm, thick material), while a 50% by weight ethanol solution was prepared for crystals or powder, and 40 μl of that solution was then impregnated into the paper disc.
(§2) The test agar plate was placed inversely, and the paper disc impregnated with the fragrance sample was placed in the center of the cover of the agar plate, followed by incubating for 72 hours at 27° C. Evaluation was made based on the diameter (mm) of the mold growth inhibition zone. When mold growth was inhibited over the entire surface of the agar plate, the diameter of the growth inhibition zone was reported as >85 mm. At locations where mold grew outside the inhibition zone, the diameter of the spore formation inhibition zone and the degree of growth were recorded by comparing with a control. The molds used in the test are shown in Table 1, wherein these molds consist of mold species that are isolated at high frequencies from rooms and bath rooms.
(§3) The amount of blended fragrance added to the paper discs was 20 μl each, and only the diameter of the inhibition zone (mm) is indicated for the results.

[2] = test system: Cladosporium cladosporioides IFO 6348 (Cc-1); assay: as above; details: 72 hours at 27° C.; for IZ: Diameter of growth inhibition zone: 20 μl fragrance (or 40 μl of 50% ethanol solution) on disc, >85 = growth inhibited over entire plate; for Growth: Growth status outside the inhibition zone: compared with control
Method: as §1, §2, §3

[3] = test system: Aspergillus niger IFO 9455 (An-1); assay: as above; details: 72 hours at 27° C.; for IZ: Diameter of growth inhibition zone: 20 μl fragrance (or 40 μl of 50% ethanol solution) on disc, >85 = growth inhibited over entire plate; for Growth: Growth status outside the inhibition zone / SI: Diameter of spore formation inhibition zone: 20 μl fragrance on disc; for Growth: Growth status outside the inhibition zone: compared with control
Method: as §1, §2, §3

[4] = test system: An-1 (Aspergillus niger); assay: Confirmation of synergistic action of two fragrances (vapor, paper disc); details: for Synergistic effect: second fragrance that shows synergistic action with the fragrance component / Antagonistic effect: second fragrance that shows antagonistic action with the fragrance component / Additive effect: second fragrance that shows additive action with the fragrance component: value = combination partner; for Synergistic effect: second fragrance that shows synergistic action with the fragrance component: combined IZ 20 mm or more larger than sum of single IZ; for Antagonistic effect: second fragrance that shows antagonistic action with the fragrance component: combined IZ 20 mm or more smaller than sum of single IZ; for Additive effect: second fragrance that shows additive action with the fragrance component: combined IZ intermediate; for IZ (diameter of growth inhibition zone) / Growth (growth status outside the inhibition zone) / SI (diameter of spore formation inhibition zone): 72 hours at 27° C.; for IZ (diameter of growth inhibition zone): sample amount on disc: citral 2 μl, benzaldehyde 10 μl, dimethyl tetrahydrobenzaldehyde 20 μl, geraniol 10 μl, octyl aldehyde 20 μl, 9-decen-1-ol 0.5 μl, trans-2-undecenal 3 μl, phenylacetaldehyde 5 μl, A + B = both amounts on one disc; for Growth (growth status outside the inhibition zone): sample amounts as in Table 3 (citral 2 μl, benzaldehyde 10 μl, dimethyl tetrahydrobenzaldehyde 20 μl, geraniol 10 μl, octyl aldehyde 20 μl, 9-decen-1-ol 0.5 μl, trans-2-undecenal 3 μl, phenylacetaldehyde 5 μl; A + B = both); for SI (diameter of spore formation inhibition zone): sample amounts as in Table 3 (citral 2 μl, benzaldehyde 10 μl, dimethyl tetrahydrobenzaldehyde 20 μl, geraniol 10 μl, octyl aldehyde 20 μl, trans-2-undecenal 3 μl, phenylacetaldehyde 5 μl; A + B = both)
Method: An agar plate prepared according to the method of Example 1 was used while using An-1 (Aspergillus niger) for the test fungi. […] 10 μl of the ethanol containing the Table 3 prescribed amount of the fragrance was impregnated into a paper disc. The test agar plate was placed inversely, and the paper disc impregnated with each fragrance alone and a paper disc simultaneously impregnated with two types of fragrances were placed in the center of the cover, followed by incubating for 72 hours at 27° C. and measuring the diameters of the resulting growth inhibition zones.
The results obtained as in Example 2 with other combinations are shown in Tables 4 through 7 as combination examples of respective synergistic, additive and antagonistic actions for each fragrant chemical product (a). […] It should be noted that in order to make the table smaller, combinations that have already been listed once are not listed in other columns of the tables.

SMILES | IZ: Diameter of growth inhibition zone [1] [mm] | Growth: Growth status outside the inhibition zone [1] | IZ: Diameter of growth inhibition zone [2] [mm] | Growth: Growth status outside the inhibition zone ([2]; 20 μl fragrance on disc) | IZ: Diameter of growth inhibition zone [3] [mm] | Growth: Growth status outside the inhibition zone [3] | Synergistic effect: second fragrance that shows synergistic action with the fragrance component [4] | Antagonistic effect: second fragrance that shows antagonistic action with the fragrance component [4] | Additive effect: second fragrance that shows additive action with the fragrance component [4] | SI: Diameter of spore formation inhibition zone [1] [mm] | SI: Diameter of spore formation inhibition zone [3] [mm] | IZ (diameter of growth inhibition zone) [4] [mm] | Growth (growth status outside the inhibition zone) [4] | SI (diameter of spore formation inhibition zone) [4] [mm] | SI: Diameter of spore formation inhibition zone ([2]; 20 μl fragrance on disc) [mm]
O=CCCc1ccccc1 [3-Phenylpropanal] | >85 | none | >85 | none | >85 | none | Citral DMA; also recorded: Citral DEA; also recorded: Citronellal; also recorded: Salicylic aldehyde, | Geraniol |  |  |  |  |  |  | 
C=CCCCCCCCCC=O [10-undecen-1-al] | >85 | sparse | >85 | sparse | >85 | none |  |  | Furfural,; also recorded: Geraniol |  |  |  |  |  | 
COc1ccc(C=O)cc1 [Anisaldehyde] | 35 |  | >85 |  | 45 |  |  |  |  | 40 | 60 |  |  |  | 
O=Cc1ccccc1 [Benzaldehyde] | >85 | none | >85 | none | >85 | none |  |  |  |  |  | 15 | slight | >85 | 
COC(/C=C/c1ccccc1)OC [Cinnamic aldehyde DMA, cinnamic aldehydodimethylacetal] | 65 | slight | 0 | good | 35 | weak |  |  |  |  | 45 |  |  |  | 
COC(C=C(C)CCC=C(C)C)OC [Citral DMA, citral dimethylacetal] | >85 | none | >85 | none | >85 | none |  |  |  |  |  |  |  |  | 
CC(C)=CCCC(C)=CC=O [Citral] | >85 | none | >85 | none | >85 | none |  |  |  |  |  | 0 | weak | 20 | 
CC(C)=CCCC(C)CC=O (stereo not drawn) [Citronellal] | >85 | sparse | >85 | sparse | 15 | weak |  |  | Thymol, and 1-Decanol, and Citronellol |  |  |  |  |  | 
CC(C)=CCCC(C)CCO (stereo not drawn) [Citronellol] | 35 | weak | 35 | weak | 35 | good | Citral DMA,; also recorded: Citral DEA, | Thymol and 9-Decen-1-ol | 1-Nonanal, and 1-Decanol, and Anisaldehyde |  | 55 |  |  |  | 
CC(C)c1ccc(C=O)cc1 [Cumin aldehyde] | >85 | none | >85 | none | >85 | none | Citral DEA; also recorded: Geraniol; also recorded: Cinnamic aldehyde DMA,; also recorded: Phenylacetaldehyde; also recorded: Decanol, Anisaldehyde,; also recorded: Citronellol |  |  |  |  |  |  |  | 
CCCCCCCCC=O [Example 1-nonanal, 1-nonanal] | >85 | sparse | >85 | sparse | 20 | weak |  |  |  |  |  |  |  |  | 
CC(C=O)Cc1ccc2c(c1)OCO2 (stereo not drawn) [Helional] | 35 | weak | 0 | weak | 10 | good |  |  |  |  | 35 |  |  |  | 
CC(C)c1cccc(=O)c(O)c1 [Hinokitiol] | 70 | good | 0 | good | 60 | good |  |  |  |  |  |  |  |  | 
CC=Cc1ccc(O)c(OC)c1 [Isoeugenol] | 35 | good | 45 | good | 30 | good |  |  |  | 40 | 50 |  |  |  | 55
COC(=O)c1ccccc1O [Methyl salicylate] | 65 | weak | 0 | good | 40 | weak |  |  |  |  |  |  |  |  | 
C=C(C)C1CC=C(C=O)CC1 (stereo not drawn) [Perill aldehyde] | >85 | none | >85 | none | >85 | none |  |  |  |  |  |  |  |  | 
C=C(C)[C@@H]1CC=C(CO)CC1 [Perilla alcohol] | 40 | slight | 45 | slight | 30 | good |  |  |  |  | 40 |  |  |  | 
O=CCc1ccccc1 [Phenylacetaldehyde] |  |  |  |  |  |  |  |  |  |  |  | 25 | good | 30 | 
Cc1ccc(C(C)C)c(O)c1 [Thymol] | >85 | sparse | >85 | sparse | 70 | weak |  |  |  |  | >85 |  |  |  | 
